Results reported in patent publication US20070117842A1, “Polymorph of 4-[3-chloro-4-(cyclopropylaminocarbonyl)aminophenoxy]-7-methoxy-6- quinolinecarboxamide and a process for the preparation of the same” (priority 2003, published 2007).

Key:
[1] = system: small cell lung cancer cell line H-526 expressing c-Kit kinase; assay: Effect on cell proliferation stimulated by SCF; format: cell-based; details: Homo sapiens, NCI-H526; H-526 cells, SCF stimulation, 7th day, Cell Counting Kit-8; read-out: IC50 (concentration required for 50% inhibition of the cell proliferation)
Description: After culturing, H-526 cells were washed with PBS three times and were suspended in an RPMI1640 medium containing 0.1% BSA (Sigma Corporation) (hereinafter abbreviated as “BSA-RPMI1640”) at 1.0×10^5 cells/ml. […] After color development, the absorbance of each well was determined using a MTP-32 plate reader (Colona Electric Co., Ltd.) at a measuring wavelength of 450 nm and at a reference wavelength of 660 nm. The absorbance of each well was subtracted by the absorbance of the well without addition of SCF, and then the ratio of the absorbance of the well with addition of the test substance to the ratio of the absorbance of the well without addition of the test substance was determined. This ratio was used to calculate the concentration of the test substance required for 50% inhibition of the cell proliferation (IC50).

c-Kit kinase [2] = target: T1, c-Kit kinase (Homo sapiens, UniProt P10721); assay: Effect on c-Kit kinase phosphorylation by SCF stimulation (immunoblot); format: cell-based; parameters: in the small cell lung cancer cell line H-526 expressing c-Kit kinase; host or cells: H-526 small cell lung cancer cells; details: H-526 cells, 1 hour with test substance, SCF 5 minutes, phospho-c-kit (Tyr719) immunoblot
T1 sequence (P10721 26-976): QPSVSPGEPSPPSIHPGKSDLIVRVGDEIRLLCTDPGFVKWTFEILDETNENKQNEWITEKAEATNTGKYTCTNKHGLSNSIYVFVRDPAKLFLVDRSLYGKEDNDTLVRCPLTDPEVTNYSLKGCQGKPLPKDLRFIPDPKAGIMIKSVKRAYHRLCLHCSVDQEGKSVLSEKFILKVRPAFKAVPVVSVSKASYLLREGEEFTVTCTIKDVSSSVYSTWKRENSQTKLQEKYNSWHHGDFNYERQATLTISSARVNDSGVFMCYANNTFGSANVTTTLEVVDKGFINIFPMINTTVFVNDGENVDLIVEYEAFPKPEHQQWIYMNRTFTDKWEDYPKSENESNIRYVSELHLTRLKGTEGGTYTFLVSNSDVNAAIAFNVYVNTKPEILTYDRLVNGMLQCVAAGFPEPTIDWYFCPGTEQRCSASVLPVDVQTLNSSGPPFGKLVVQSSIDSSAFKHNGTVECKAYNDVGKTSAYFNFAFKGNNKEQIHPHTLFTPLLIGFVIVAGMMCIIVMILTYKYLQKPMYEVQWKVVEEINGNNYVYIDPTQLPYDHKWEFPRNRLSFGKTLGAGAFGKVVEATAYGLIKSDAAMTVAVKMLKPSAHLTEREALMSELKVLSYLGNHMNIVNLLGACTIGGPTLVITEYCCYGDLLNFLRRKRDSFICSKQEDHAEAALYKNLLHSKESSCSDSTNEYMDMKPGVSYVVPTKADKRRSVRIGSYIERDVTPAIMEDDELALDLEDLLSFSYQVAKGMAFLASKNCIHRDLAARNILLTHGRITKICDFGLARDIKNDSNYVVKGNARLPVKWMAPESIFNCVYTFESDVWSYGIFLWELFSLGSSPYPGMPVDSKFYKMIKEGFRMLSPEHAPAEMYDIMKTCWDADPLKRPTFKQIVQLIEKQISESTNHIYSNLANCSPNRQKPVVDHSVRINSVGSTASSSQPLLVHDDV
Description: 4-(3-Chloro-4-(cyclopropylaminocarbonyl)aminophenoxy)-7-methoxy-6-quinolinecarboxamide was tested for its effect on the phosphorylation of the c-Kit kinase molecule by SCF stimulation in the small cell lung cancer cell line H-526 expressing c-Kit kinase.
H-526 cells were cultured in a 5% CO2 incubator (37° c.) using an RPMI1640 medium containing 10% FCS. After culturing, H-526 cells were washed with PBS three times and were suspended in a BSA-RPMI1640 medium at 5.0×10^5 cells/ml. Each 1 ml of this cell suspension was inoculated to the well of a 24-well plate and the suspension was cultured in a 5% CO2 incubator (37° c.) for 6 hours. After 6-hours culturing, 1 ml of BSA-RPMI1640 containing a diluted test substance (4-(3-Chloro-4-(cyclopropylaminocarbonyl)aminophenoxy)-7-methoxy-6-quinolinecarboxamide) was added to each well and culturing was carried out in a 5% CO2 incubator (37° c.) for 1 hour. Additional culturing was then carried out in a 5% CO2 incubator (37° c.) for 5 minutes after the addition of 10 μl of SCF (10 μg/ml, R&D Corporation). After 5-minutes culturing, the cells were washed with PBS and 100 μl of SDS sample loading buffer was added to the cells to prepare a cell lysate sample. After the sample was heat-treated at 94° c. for 10 minutes, it was cryopreserved at −20° c. […]

H-526 tumor = assay: Effect on growth of H-526 tumor transplanted to nude mice; format: in vivo, Balb/c nu/nu mice
Description: H-526 cells were cultured in a 5% CO2 incubator (37° c.) using an RPMI1640 medium containing 10% FCS. After the culture medium was collected, H-526 cells were washed with PBS twice and were suspended in PBS at 5.0×10^7 cells/ml. This cell suspension (0.1 ml) was transplanted to the subcutaneous parts of the right flank of 6-week female Balb/c nu/nu mice (purchased from Charles River Laboratories, Inc.). After transplantation, administration of a test substance (4-(3-chloro-4-(cyclopropylaminocarbonyl)aminophenoxy)-7-methoxy-6-quinolinecarboxamide) was started at the point the tumor volume reached approximately 150 mm^3, and thus, oral administration was conducted twice daily for a period of 14 days. The test substance was suspended in a 0.5% methylcellulose solution (Wako Pure Chemical Industries Co., Ltd.) so as to give a dose of 0.1 ml/10 g body weight.
The tumor volume was measured with a caliper twice weekly during the administration period. The long and short diameters of the tumor were measured with a caliper and the tumor volume was calculated according to the equation: ½×long diameter×short diameter×short diameter. Here, the experiment was conducted in a vehicle control group of 10 animals (solvent-administered group) as well as in a test substance administered group of 5 animals.

c-Kit kinase [3] = target: T1, c-Kit kinase; assay: Effect on c-Kit kinase phosphorylation in H-526 tumor transplanted to nude mice (immunoblot); format: in vivo, Balb/c nu/nu mice; parameters: from tissue; host or cells: H-526 tumour xenograft extracted from Balb/c nu/nu mice; details: H-526 tumor in nude mice
Description: 0.1 ml of a H-526 cell suspension prepared at a concentration of 5.0×10^7 cells/ml, was transplanted to the subcutaneous parts of the right latus of 6-week female Balb/c nu/nu mice (purchased from Charles River Laboratories, Inc.). The animals were then divided into a vehicle control group (solvent-administered group) and a test substance (4-(3-chloro-4-(cyclopropylaminocarbonyl)aminophenoxy)-7-methoxy-6-quinolinecarboxamide) administered group at the point the tumor volume reached 300-1000 mm^3: the test substance was administered to the latter group. The extracted tumor was placed in a cell lysate buffer (50 mM HEPES (pH 7.4), 150 mM NaCl, 10% glycerol, 1% Triton X-100, 1.5 mm MgCl2, 1 mM EDTA, 100 mM NaF, 1 mM PMSF, 10 μg/ml aprotinin, 50 μg/ml leupeptin, 1 μg/ml peptatin A, 1 mM Na3VO4, 25 mM , βglycerophosphate, and phosphatase inhibitor cocktail 11) and homogenized. After centrifugation, the supernatant was protein quantified, and a 3×SDS sample loading buffer was added to prepare a cell lysate sample. Subsequently, the cell lysate was heat-treated at 94° c. for 10 minutes and cryopreserved at −20° c.
The cell lysate sample which was equivalent to 30 μg of protein was electrophoresed on a 4-20% gradient polyacrylamide gel (Daiichi Pure Chemicals Co., Ltd.). After electrophoresis, the sample was transferred to a PVDF membrane (Amersham Pharmacia Biotech Inc.) for 3 hours. In order to assay phosphorylated c-Kit, c-Kit and β-actin, immunoblot was performed using a phospho-c-kit (Tyr719) antibody (Cell Signaling Technologies, Inc.), an anti c-Kit antibody (Cell Signaling Technologies, Inc.) and an anti β-actin antibody (Sigma) as a primary antibody and an anti-rabbit IgG, HRP-linked antibody (Cell Signaling Technologies, Inc.) as a secondary antibody. After the membrane was washed, it was developed with a Super Signal (Pierce Biotechnology, Inc.).

Compound	IC50 [1] [nM]	c-Kit kinase phosphorylation in the presence of SCF (c-Kit kinase [2])	growth of the nude mouse transplanted H-526 tumor (tumor volume) (H-526 tumor; oral, twice daily for 14 days)	c-Kit and β-actin in tumor tissue (c-Kit kinase [3]; 30 or 100 mg/kg)	phosphorylated c-Kit in tumor tissue (c-Kit kinase [3]; 30 or 100 mg/kg)	anti-tumor effect (H-526 tumor; H-526 tumor in nude mice, 160 mg/kg)	phosphorylated c-Kit in tumor tissue (c-Kit kinase [3]; 160 mg/kg)
COc1cc2nccc(Oc3ccc(NC(=O)NC4CC4)c(Cl)c3)c2cc1C(N)=O [4-(3-chloro-4-(cyclopropylaminocarbonyl)aminophenoxy)-7-methoxy-6-quinolinecarboxamide]	9.46	suppressed the c-Kit kinase phosphorylation that would take place in the presence of SCF in a concentration-dependent manner	suppressed the growth of the nude mouse transplanted H-526 tumor in a dose-dependent manner	remained unchanged	completely inhibited phosphorylation		
Cc1ccc(NC(=O)c2ccc(CN3CCN(C)CC3)cc2)cc1Nc1nccc(-c2cccnc2)n1 [STI571, reference compound]						showed little anti-tumor effect	partially inhibited phosphorylation
